# Assay results published in PMC6138237, “Machine intelligence decrypts β-lapachone as an allosteric 5-lipoxygenase inhibitor” (Chemical Science, 2018).
# Read-outs that look alike come from different tables or passages of the source.
# Tests used:
# Type in all cases: biochemical
# Src = Src (Homo sapiens, UniProt P12931); assay: ExpresS Diversity Kinase Profile, Cerep (LANCE): Src
# MARK1 = MARK1 (Homo sapiens, UniProt Q9P0L2); assay: ExpresS Diversity Kinase Profile, Cerep (LANCE): MARK1
# Akt1/PKBα = Akt1/PKBα (Homo sapiens, UniProt P31749); assay: ExpresS Diversity Kinase Profile, Cerep (LANCE): Akt1/PKBα; conditions: for inhibition at 150 µM: Akt1/PKBα, Flag: Interference
# Sequence of Akt1/PKBα (P31749 whole entry): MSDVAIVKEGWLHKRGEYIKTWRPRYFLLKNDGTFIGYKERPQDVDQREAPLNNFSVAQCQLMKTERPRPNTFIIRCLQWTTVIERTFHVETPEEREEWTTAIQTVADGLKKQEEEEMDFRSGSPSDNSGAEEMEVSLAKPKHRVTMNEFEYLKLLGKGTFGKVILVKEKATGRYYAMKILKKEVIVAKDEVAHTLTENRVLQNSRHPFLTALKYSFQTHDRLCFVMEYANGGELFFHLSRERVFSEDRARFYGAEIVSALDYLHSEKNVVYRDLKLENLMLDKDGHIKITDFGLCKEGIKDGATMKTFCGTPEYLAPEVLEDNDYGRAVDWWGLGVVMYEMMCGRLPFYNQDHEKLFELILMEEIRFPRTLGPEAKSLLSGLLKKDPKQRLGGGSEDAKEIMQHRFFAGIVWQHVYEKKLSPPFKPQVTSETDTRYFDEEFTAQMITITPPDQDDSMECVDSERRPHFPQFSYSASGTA
# PDK1 = molecular target: T1, PDK1 (Homo sapiens, UniProt O15530); assay: ExpresS Diversity Kinase Profile, Cerep (LANCE): PDK1
# T1 sequence (O15530 1-556): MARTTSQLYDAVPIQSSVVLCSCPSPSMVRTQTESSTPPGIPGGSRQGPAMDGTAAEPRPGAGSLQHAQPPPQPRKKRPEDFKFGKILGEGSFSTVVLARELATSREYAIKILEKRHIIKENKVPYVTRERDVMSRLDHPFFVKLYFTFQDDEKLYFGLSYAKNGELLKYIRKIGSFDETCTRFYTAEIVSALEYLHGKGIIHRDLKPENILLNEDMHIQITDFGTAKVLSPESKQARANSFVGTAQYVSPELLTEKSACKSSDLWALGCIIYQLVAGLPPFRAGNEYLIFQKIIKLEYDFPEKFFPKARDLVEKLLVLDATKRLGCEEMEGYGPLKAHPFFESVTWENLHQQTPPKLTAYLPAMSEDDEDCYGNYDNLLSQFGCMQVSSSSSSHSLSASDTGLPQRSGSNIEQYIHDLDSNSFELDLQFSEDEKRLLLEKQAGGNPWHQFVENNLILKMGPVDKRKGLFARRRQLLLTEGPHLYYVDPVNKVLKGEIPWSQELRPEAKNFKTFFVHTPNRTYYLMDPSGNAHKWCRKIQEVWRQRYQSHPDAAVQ
# MAP4K4 = MAP4K4 (Homo sapiens, UniProt O95819); assay: ExpresS Diversity Kinase Profile, Cerep (LANCE): MAP4K4
# Sequence of MAP4K4 (O95819 whole entry): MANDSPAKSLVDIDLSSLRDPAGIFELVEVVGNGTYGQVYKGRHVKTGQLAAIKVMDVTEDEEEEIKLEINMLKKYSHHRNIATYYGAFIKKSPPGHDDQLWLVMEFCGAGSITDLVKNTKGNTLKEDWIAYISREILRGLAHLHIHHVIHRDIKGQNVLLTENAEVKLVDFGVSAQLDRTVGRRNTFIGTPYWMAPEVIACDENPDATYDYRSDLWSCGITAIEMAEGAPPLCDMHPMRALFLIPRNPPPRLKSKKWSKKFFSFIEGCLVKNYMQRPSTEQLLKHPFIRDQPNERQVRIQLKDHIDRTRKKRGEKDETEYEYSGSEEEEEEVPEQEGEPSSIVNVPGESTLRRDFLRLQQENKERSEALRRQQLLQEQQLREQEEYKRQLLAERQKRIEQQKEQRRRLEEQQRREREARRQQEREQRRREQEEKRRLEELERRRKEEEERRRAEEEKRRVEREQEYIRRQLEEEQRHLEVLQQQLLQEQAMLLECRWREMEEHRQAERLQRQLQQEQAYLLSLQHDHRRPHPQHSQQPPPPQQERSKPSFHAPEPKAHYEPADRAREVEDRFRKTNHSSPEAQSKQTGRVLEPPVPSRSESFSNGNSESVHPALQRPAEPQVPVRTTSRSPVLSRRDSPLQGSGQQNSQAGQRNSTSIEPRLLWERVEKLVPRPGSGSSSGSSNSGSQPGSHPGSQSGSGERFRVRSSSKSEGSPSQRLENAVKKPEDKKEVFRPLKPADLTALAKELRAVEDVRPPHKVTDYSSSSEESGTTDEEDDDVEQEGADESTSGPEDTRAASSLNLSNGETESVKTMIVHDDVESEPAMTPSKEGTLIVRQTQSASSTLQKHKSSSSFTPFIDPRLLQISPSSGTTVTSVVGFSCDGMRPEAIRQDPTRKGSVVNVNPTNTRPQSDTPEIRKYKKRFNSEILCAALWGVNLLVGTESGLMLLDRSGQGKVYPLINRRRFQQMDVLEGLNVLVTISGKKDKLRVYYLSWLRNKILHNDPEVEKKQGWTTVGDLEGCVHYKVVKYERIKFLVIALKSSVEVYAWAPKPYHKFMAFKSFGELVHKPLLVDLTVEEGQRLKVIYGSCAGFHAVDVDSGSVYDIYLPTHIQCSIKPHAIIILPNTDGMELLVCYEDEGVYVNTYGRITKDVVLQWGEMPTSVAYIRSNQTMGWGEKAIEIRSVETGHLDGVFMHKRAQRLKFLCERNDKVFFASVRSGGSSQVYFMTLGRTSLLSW
# TAOK2 = molecular target: T2, TAOK2 (Homo sapiens, UniProt Q9UL54); assay: ExpresS Diversity Kinase Profile, Cerep (LANCE): TAOK2
# T2 sequence (Q9UL54 1-1235): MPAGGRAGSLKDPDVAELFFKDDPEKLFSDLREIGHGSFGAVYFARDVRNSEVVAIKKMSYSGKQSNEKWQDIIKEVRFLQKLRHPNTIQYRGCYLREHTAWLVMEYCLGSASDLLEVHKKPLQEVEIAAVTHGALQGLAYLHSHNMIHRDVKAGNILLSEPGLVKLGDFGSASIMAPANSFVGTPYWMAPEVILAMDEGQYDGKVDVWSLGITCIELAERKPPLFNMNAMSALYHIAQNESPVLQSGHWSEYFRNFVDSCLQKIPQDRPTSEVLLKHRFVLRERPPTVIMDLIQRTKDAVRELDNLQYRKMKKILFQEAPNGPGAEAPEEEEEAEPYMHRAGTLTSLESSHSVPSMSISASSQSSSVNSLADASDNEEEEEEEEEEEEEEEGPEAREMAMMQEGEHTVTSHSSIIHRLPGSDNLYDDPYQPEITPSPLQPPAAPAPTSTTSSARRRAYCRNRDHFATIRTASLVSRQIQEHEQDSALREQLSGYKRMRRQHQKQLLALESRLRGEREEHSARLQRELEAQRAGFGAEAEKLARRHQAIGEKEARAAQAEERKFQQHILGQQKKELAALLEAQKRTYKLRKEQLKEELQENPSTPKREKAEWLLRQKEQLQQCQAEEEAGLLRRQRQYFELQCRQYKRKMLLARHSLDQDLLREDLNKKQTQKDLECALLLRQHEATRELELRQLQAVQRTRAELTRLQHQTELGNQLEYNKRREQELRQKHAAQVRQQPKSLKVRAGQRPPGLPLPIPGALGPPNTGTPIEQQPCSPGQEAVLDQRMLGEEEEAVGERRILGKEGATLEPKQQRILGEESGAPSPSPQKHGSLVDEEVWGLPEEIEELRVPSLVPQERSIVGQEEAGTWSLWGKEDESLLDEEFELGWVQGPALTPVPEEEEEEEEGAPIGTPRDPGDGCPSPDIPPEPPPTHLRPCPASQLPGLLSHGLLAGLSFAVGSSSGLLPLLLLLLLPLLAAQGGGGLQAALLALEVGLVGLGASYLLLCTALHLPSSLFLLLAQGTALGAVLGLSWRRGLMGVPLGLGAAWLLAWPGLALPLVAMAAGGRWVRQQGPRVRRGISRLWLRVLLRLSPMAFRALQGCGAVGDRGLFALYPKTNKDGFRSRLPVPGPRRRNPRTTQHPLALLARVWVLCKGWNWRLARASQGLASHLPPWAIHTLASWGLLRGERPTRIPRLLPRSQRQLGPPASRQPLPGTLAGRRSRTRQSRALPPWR
# RAF-1 = RAF-1 (Homo sapiens, UniProt P04049); assay: ExpresS Diversity Kinase Profile, Cerep (LANCE): RAF-1; conditions: for inhibition at 150 µM: RAF-1
# Sequence of RAF-1 (P04049 whole entry): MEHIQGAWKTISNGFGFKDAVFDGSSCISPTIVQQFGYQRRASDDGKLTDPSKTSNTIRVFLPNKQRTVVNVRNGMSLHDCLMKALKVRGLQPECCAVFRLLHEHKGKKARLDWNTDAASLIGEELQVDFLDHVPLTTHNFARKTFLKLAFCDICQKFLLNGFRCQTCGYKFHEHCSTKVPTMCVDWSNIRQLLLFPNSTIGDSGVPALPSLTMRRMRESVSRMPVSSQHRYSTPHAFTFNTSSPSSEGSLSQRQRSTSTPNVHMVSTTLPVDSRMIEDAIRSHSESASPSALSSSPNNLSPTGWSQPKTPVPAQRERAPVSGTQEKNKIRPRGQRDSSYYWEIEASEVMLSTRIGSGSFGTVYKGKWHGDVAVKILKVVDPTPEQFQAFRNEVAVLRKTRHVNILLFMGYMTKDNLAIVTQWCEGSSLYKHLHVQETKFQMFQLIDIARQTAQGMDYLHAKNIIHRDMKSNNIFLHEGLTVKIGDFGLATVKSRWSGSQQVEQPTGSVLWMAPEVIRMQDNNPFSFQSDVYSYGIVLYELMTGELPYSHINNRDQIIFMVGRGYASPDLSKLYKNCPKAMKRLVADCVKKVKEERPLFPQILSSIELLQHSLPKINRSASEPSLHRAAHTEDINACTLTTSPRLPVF
# CDK2 = CDK2 (Homo sapiens, UniProt P24941); assay: ExpresS Diversity Kinase Profile, Cerep (LANCE): CDK2
# [1] = n = 2, read-out: % Inhibition of control values, Mean
# [2] = read-out: % Inhibition of control values, 1st measurement
# [3] = read-out: % Inhibition of control values, 2nd measurement
# Sequence of Src (P12931 whole entry): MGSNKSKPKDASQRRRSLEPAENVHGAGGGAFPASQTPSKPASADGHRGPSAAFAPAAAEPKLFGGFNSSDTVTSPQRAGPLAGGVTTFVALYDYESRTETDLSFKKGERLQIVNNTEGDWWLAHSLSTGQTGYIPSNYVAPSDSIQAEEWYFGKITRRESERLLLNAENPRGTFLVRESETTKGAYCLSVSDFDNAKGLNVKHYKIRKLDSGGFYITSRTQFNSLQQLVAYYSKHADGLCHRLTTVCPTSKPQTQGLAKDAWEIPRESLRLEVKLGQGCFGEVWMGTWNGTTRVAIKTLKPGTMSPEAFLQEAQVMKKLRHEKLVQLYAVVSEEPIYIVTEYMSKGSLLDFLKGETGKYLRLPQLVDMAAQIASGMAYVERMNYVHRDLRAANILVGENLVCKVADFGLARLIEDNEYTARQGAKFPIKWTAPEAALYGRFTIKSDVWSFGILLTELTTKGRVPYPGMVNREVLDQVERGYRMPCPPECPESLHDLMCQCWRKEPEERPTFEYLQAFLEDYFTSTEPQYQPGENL
# Sequence of MARK1 (Q9P0L2 whole entry): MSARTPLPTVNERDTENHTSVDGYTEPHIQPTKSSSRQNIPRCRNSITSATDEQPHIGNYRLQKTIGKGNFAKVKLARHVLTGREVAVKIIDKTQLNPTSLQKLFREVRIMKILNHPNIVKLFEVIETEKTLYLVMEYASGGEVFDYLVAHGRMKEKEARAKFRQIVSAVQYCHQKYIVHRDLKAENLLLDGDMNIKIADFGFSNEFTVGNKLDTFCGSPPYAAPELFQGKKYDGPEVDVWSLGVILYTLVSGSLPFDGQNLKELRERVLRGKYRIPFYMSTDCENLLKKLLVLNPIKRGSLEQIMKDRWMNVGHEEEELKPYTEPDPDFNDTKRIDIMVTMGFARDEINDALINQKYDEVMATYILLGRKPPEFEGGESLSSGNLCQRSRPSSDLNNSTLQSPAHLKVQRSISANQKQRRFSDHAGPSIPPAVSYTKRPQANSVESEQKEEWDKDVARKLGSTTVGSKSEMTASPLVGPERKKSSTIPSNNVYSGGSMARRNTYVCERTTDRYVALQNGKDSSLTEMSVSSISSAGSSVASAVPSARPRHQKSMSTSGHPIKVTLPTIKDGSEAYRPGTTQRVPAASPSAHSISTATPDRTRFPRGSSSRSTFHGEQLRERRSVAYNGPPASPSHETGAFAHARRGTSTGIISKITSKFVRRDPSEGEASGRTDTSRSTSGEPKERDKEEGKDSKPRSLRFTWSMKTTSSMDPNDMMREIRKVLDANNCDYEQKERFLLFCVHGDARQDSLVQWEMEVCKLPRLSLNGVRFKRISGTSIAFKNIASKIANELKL
compound,measurement,setting,value
"CN[C@@H]1C[C@H]2O[C@@](C)([C@@H]1OC)n1c3ccccc3c3c4c(c5c6ccccc6n2c5c31)C(=O)NC4 [Staurosporine, reference compound]",nHill,Src; control,1.0
same,nHill,MARK1; control,2.5
same,nHill,"Akt1/PKBα; Akt/PKBα, control",0.8
same,nHill,PDK1; control,> 3
same,nHill,MAP4K4; control,2.7
same,nHill,TAOK2; control,1.6
same,nHill,"RAF-1; RAF1, control",2.4
CC1(C)CCC2=C(O1)c1ccccc1C(=O)C2=O [β-Lapachone],inhibition at 150 µM,Src; [1],37.8%
same,inhibition at 150 µM,Src; [2],36.1%
same,inhibition at 150 µM,Src; [3],39.5%
same,inhibition at 150 µM,CDK2; [1],78.2%
same,inhibition at 150 µM,CDK2; [2],79.4%
same,inhibition at 150 µM,CDK2; [3],77.1%
same,inhibition at 150 µM,MARK1; [1],-57.4%
same,inhibition at 150 µM,MARK1; [2],-70.1%
same,inhibition at 150 µM,MARK1; [3],-44.7%
same,inhibition at 150 µM,Akt1/PKBα; [2],65.8%
same,inhibition at 150 µM,Akt1/PKBα; [3],55%
same,inhibition at 150 µM,Akt1/PKBα; [1],60.4%
same,inhibition at 150 µM,PDK1; [1],1.4%
same,inhibition at 150 µM,PDK1; [2],8.9%
same,inhibition at 150 µM,PDK1; [3],-6.1%
same,inhibition at 150 µM,MAP4K4; [1],48.6%
same,inhibition at 150 µM,MAP4K4; [2],47.7%
same,inhibition at 150 µM,MAP4K4; [3],49.5%
same,inhibition at 150 µM,"TAOK2; Flag: Interference, read-out: % Inhibition of control values, 1st measurement",32.9%
same,inhibition at 150 µM,"TAOK2; Flag: Interference, read-out: % Inhibition of control values, 2nd measurement",33.1%
same,inhibition at 150 µM,"TAOK2; n = 2, Flag: Interference, read-out: % Inhibition of control values, Mean",33%
same,inhibition at 150 µM,RAF-1; [1],57.3%
same,inhibition at 150 µM,RAF-1; [2],55.4%
same,inhibition at 150 µM,RAF-1; [3],59.3%
